Data on nine molecules can be found in publication PMC8836281, “Characterisation of Endogenous Peptides Present in Virgin Olive Oil” (International Journal of Molecular Sciences, 2022).

One experiment deals with T1, rabbit-lung ACE (Oryctolagus cuniculus, UniProt P12822).
T1 construct: rabbit-lung ACE (E.C.3.4.15.1., Sigma-Aldrich); purchased Sigma-Aldrich; host or cells: rabbit lung (tissue-derived enzyme)
T1 sequence (P12822 34-1310): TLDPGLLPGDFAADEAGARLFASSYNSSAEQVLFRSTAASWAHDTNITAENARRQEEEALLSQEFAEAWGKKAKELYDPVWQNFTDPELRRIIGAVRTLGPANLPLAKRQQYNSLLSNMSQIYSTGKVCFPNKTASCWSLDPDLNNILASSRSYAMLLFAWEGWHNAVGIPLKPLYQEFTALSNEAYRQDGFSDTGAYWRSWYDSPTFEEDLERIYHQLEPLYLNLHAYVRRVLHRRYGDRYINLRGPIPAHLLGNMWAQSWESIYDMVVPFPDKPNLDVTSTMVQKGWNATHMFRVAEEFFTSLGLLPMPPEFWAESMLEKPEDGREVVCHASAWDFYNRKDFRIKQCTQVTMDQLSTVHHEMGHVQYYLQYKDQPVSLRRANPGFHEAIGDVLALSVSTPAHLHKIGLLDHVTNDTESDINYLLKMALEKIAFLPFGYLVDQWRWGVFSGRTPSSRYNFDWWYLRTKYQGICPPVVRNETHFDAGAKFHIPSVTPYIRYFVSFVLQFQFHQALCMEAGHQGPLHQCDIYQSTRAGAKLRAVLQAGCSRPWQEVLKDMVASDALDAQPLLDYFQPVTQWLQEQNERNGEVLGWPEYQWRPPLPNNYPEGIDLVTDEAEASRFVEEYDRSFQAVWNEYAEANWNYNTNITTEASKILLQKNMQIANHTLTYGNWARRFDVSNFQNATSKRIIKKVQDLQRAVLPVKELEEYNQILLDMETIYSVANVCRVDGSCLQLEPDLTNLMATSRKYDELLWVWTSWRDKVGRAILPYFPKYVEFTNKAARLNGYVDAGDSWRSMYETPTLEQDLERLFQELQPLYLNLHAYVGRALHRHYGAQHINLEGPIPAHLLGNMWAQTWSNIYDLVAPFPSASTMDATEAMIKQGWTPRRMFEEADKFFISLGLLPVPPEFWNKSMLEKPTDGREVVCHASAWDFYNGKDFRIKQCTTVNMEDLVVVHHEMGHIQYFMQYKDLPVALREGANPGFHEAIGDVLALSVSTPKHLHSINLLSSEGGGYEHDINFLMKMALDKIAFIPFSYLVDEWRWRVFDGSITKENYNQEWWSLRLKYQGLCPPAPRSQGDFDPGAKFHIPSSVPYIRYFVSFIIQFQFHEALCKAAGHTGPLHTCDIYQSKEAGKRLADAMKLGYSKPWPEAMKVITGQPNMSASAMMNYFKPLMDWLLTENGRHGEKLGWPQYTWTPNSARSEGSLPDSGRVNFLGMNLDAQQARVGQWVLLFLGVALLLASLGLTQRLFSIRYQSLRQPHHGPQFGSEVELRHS
Nature of the experiment: ACE-inhibitory activity of synthetic peptides (fluorescence assay, substrate Abz-Gly-Phe(NO2)-Pro). Format: biochemical. The note with it: means ± SD of three different experiments, ND = not detected, read-out: ACEi Activity IC50 (µM) ± SD. On the procedure: The ACE-inhibitory activity of the synthetic peptides was determined according to the method described in [84], with some modifications. This assay is based on the ability of ACE to hydrolyse the substrate o-aminobenzoylglycyl-p-nitrophenylalanyl-proline (Abz-Gly-Phe-(NO2)-Pro, Bachem Feinchemikalien, Bubendorf, Switzerland), producing the fluorescent product o-aminobenzoylglycine (Abz-Gly). Reagents used include: buffer A: 150 mM Tris-HCl buffer (pH 8.3), with 0.1 µM ZnCl2; buffer B: 150 mM de Tris-HCl buffer (pH 8.4), with 1125 mM NaCl; ACE solution (stock): rabbit-lung ACE (E.C.3.4.15.1., Sigma-Aldrich), dissolved in buffer A containing 50% glycerol to make an enzyme concentration of 1 U/mL. This solution was diluted 1/20 with buffer A to obtain the working solution (50 mU/mL), which was prepared fresh every day to conduct the experiment. The substrate solution (Abz-Gly-Phe(NO2)-Pro) was dissolved in buffer B to a final concentration of 0.45 mM. This solution was also prepared every day before its use and was protected from light and kept at 4 °C. The assay was carried out using a fluorescence technique. Black polystyrene plates of 96 wells (Thermo Scientific, Waltham, Massachussets, USA) were used. The wells contained the following reaction solutions: control = 50 μL of Milli-Q water and 50 μL of ACE solution; blank = 50 μL of Milli-Q water and 50 μL of buffer A; sample = 50 μL of sample and 50 μL of ACE solution; sample blank = 50 μL of sample and 50 μL of buffer A. The enzymatic reaction was initiated by adding 200 μL (final volume in each well 300 μL) of substrate solution, and the plate was immediately mixed and incubated at 37 °C in a VICTORX5 fluorometer (PerkinElmer, USA). The fluorescence generated was measured after 30 min using 355 and 420 nm as excitation and emission wavelengths, respectively. The ACE-inhibitory activity of each sample was determined in triplicate. The ACE-inhibitory activity was calculated using the following formula: ACE inhibitory activity (%)=(FC−FB)−(FS−FBs)/FC−FB × 100 where FC (control) is the fluorescence emitted after the action of ACE on the substrate, without inhibitor (i.e., sample); FB (blank) is the fluorescence emitted by the substrate; FS (sample) is the fluorescence emitted after the action of ACE on the substrate, with inhibitor sample; and FBs (blank sample) are the fluorescences emitted by the substrate and the sample.
The ACE-inhibitory activity is expressed as IC50, which is the concentration of inhibitor required to inhibit the activity of ACE by 50%.

For experiment [1] the following is noted: cited from earlier work.
Experiment [2] deals with pre- or hypertensive humans. On the set-up: method as in PMID 25608938. To be noted: supplementation of pre- or hypertensive humans for longer than four weeks; meta-analysis of 30 trials; cited from earlier work.
In another experiment the test system is ACE. To be noted: read-out: ACE inhibition IC50, cited from earlier work.

Where two headings read alike, the source gives them in different places. Residues, ends and D or L forms follow the SMILES beside them. No end group written: not given here.

As to `CC(C)[C@H](NC(=O)[C@H](CO)NC(=O)[C@H](Cc1ccc(O)cc1)NC(=O)[C@H](CS)NC(=O)[C@@H](N)CS)C(=O)N[C@@H](Cc1ccc(O)cc1)C(=O)O` [Peptide no. 1 de novo, CCYSVY] (H-CCYSVY-OH), the IC50 at rabbit-lung ACE stood at 25.6 ± 0.41 µM.
Take `N[C@@H](CCC(=O)N[C@@H](CS)C(=O)NCC(=O)O)C(=O)O` [glutathione]: the “antioxidant activity (TEAC)” value in experiment [1] is reported as 0.9 TEAC.
In the case of CPANGFY [Peptide no. 19, CPANGFY], the half-maximal inhibitory concentration (IC50) on rabbit-lung ACE came to 3.76 ± 0.39 µM.
Same read-out and setting: the result for DCHYFL [Peptide no. 2 de novo, DCHYFL] reads 41.5 ± 2.09 µM.
Take IPP: the “effect on systolic and diastolic blood pressure” value in experiment [2] is “significant reduction in systolic and diastolic blood pressure”. For the same molecule, in the experiment on ACE (peptides described in dairy), the IC50 was 5 µM.
As to NALLCSNS [compound 18], the IC50 at rabbit-lung ACE was determined as 0.98 ± 0.04 µM.
As for SVY, the IC50 in the experiment with ACE (C-terminal di-/tripeptide of de novo peptide no. 1) was 8.1 µM.
Consider VCGEAFGKA [Peptide no. 14], for which the half-maximal inhibitory concentration (IC50) at rabbit-lung ACE amounted to 57.2 ± 4.31 µM.
On to VPP, for which the “effect on systolic and diastolic blood pressure” value in experiment [2] is “significant reduction in systolic and diastolic blood pressure”. The IC50 in the experiment on ACE (peptides described in dairy) was 9 µM.

In general, IC50 refers to the point on the concentration scale where inhibition reaches its midpoint.
